Test results reported in PMC6437269, “OXA-48-Mediated Ceftazidime-Avibactam Resistance Is Associated with Evolutionary Trade-Offs” (mSphere, 2019).

Key:
OXA-48:P68A = OXA-48:P68A (Klebsiella pneumoniae, UniProt Q6XEC0, P68A); assay: IC50 with nitrocefin as reporter substrate, OXA-48:P68A; type: biochemical
OXA-48 = target: T1, OXA-48 (Klebsiella pneumoniae, UniProt Q6XEC0); assay: biochemical; settings: nitrocefin reporter substrate; enzyme and inhibitor incubated 5 min; error = 95% CI
T1 construct: made in house
T1 sequence (Q6XEC0 23-265 limits assumed): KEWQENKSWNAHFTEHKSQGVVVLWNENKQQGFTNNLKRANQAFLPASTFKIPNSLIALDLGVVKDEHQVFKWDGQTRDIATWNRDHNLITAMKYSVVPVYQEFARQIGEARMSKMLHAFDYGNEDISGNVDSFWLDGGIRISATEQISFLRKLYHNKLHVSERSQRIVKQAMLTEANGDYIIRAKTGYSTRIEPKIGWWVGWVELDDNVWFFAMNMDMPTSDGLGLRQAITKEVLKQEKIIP

Chain of OXA-48:P68A (Q6XEC0 23-265 P68A): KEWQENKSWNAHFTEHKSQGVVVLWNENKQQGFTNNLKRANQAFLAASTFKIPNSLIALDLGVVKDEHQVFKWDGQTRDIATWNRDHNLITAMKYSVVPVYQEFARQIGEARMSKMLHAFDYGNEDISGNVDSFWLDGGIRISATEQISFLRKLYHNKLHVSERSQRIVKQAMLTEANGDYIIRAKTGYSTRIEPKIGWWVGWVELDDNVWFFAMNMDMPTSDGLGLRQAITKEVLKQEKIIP

C[C@]1(Cn2ccnn2)[C@H](C(=O)O)N2C(=O)C[C@H]2S1(=O)=O [Tazobactam, tazobactam]
reduction in the IC50 (OXA-48:P68A; P68A compared to native OXA-48, 5 min): > 20 fold
IC50 (OXA-48:P68A; nitrocefin reporter substrate, enzyme and inhibitor incubated 5 min, error = 95% CI): 4 ± 1 µM
IC50 (OXA-48): 95 ± 9 µM
